{"source": "patent US9879020B2", "about": "“GABAA agonists and methods of using to control airway hyperresponsiveness and inflammation in asthma” (priority 2012, dated 2018)", "key": {"[1]": {"tested_on": "GABAAR containing single α-subunits", "experiment": "Patch clamp assay of chloride-flux inward currents at GABAAR containing single α-subunits (FIG. 12)", "assay_type": "cell-based", "settings": "dose-response curves, α4 or α6 GABAAR compared to other α-subtypes", "excerpt": "Selectivity is quantified by dose-response curves showing greater inward currents (i.e., agonist activity) by action of GABAAR bearing a4 or a6 compared to other α-subtypes.\nTwo compounds having selective activity bias for α4-GABAAR were identified (FIG. 12). Patch clamp assays were used to quantify chloride flux induced inward currents resulting from agonism of GABAAR containing single α-subunits."}, "GP tracheal rings": {"tested_on": "GP tracheal rings", "experiment": "Direct relaxation of guinea pig tracheal rings contracted with TEA or substance P", "settings": "CM-D-45 200 um, 15 minutes", "experimental": "Male Hartley guinea pigs (approximately 400 g) were anesthetized with intraperitoneal pentobarbital (100 mg/kg). Trachea were removed and dissected under a dissecting microscope into closed rings comprised of two cartilaginous segments. Epithelium was removed by gentle abrasion on the tracheal lumen with cotton. Tissues were placed into cold Krebs-Henseleit (KH) buffer (in mM: NaCl 118, KCl 5.6, CaCl2 0.5, MgSO4 0.24, NaH2PO4 1.3, NaHCO3 25, glucose 5.6, pH 7.4) containing indomethacin 10 uM (DMSO final concentration in organ baths of 0.01%) to block tone due to endogenous release of prostanoids. […]\nTo determine the direct relaxant effect of α4 subunit containing GABAA receptor activation using different contractile agonists, GP tracheal rings prepared according to Reference Example 3 were contracted with a single dose (10 mM) of TEA or (1 uM) substance P. Following a plateau in the generated muscle force, a single dose of CM-D-45 (200 um) or vehicle control (DMSO 0.1%) was added to the organ bath buffer and the percentage of relaxation achieved was assessed over 15 minutes in comparison to intra-experimental matched vehicle controls."}, "human Jurkat E6-1 cells": {"tested_on": "human Jurkat E6-1 cells", "experiment": "Automated patch clamp (IonFlux) for potentiation of GABA, membrane polarization in Jurkat E6-1 cells", "assay_type": "cell-based", "settings": "tested with 0.1 μM GABA; preliminary assay development studies", "experimental": "Inserts show inward rectifying currents ([…]) at various doses. Compounds tested with 0.1 μM GABA. Curves show average of four determinations at indicated doses and standard deviations.\nBoth compounds were investigated using a CD4+ T-lymphocyte cell line (Jurkat E6-1) for potentiation of GABA using automated patch clamp (IonFlux). In contrast to manual patch clamp assays; this high throughput system enables dose dependent efficacy testing of more than 20 test conditions per day."}, "murine tracheal rings": {"tested_on": "murine tracheal rings", "experiment": "Relaxation of acetylcholine-induced contraction in murine tracheal rings (wild type and GABAA α4 knockout), Example 13", "settings": "CMD-45 100 uM, 30 minutes, ACh ~EC50; wild type vs GABAA α4 knockout mice; p<0.01 vs vehicle", "excerpt": "Adult male C57/B16 wild type mice or adult male mice globally deficient in the GABAA a4 subunit (from Dr. Gregg Homanics, University of Pittsburgh) were euthanized with an overdose of sodium pentobarbital. Tracheas were rapidly removed and placed in modified Krebs-Henseleit buffer of the following composition in mM: 115 NaCl, 2.5 KCl, 1.91 CaCl2, 2.46 MgSO4, 1.38 NaH2PO4, 25 NaHCO3, 5.56 D-glucose: pH 7.4 Connective tissue was removed under a dissecting microscope and tracheas were cut in half axially. One-half trachea was used in each chamber of a myograph bath (DMT: Ann Arbor, Mich.), one-half used for vehicle treatment and the other half used for drug (i.e. CMD-45) treatment. […] Tension was continuously digitally recorded using BioPac hardware connected to Acknowledge software. […] An ACh ˜EC50 was determined for each tracheal ring based on these dose response curves.\nIn relaxation studies, tracheal ring were contracted to the determined ˜EC50 and force was allowed to plateau. Single concentrations of vehicle (0.1% DMSO) or CMD-45 (100 uM) were added and continuous muscle force was measured over 30 minutes. The data are expressed as the percent of remaining tone at 30 minutes relative to the initial force achieved with the EC50 concentration of acetylcholine. […]"}, "[2]": {"tested_on": "Guinea pig tracheal rings", "experiment": "Airway smooth muscle force in guinea pig ex vivo tracheal rings, Example 20", "settings": "added after acetylcholine EC50 contraction", "experimental": "Male (400 g) Dunkin Hartley guinea pigs were anesthetized with 100 mg/kg pentobarbital. Trachea were removed and divided into 8 closed circular rings each comprised of 2 cartilagenous segments. Adventitia and epithelium were dissected off under a microscope. Closed rings were suspended in 2 ml Radnoti organ baths connected to a Grass FT03 force transducer under 1 g resting tension at 37° C. with bubbled oxygenation 95% O2/5% CO2 and allowed to equilibrate for 1 h at resting tension with buffer exchanges every 15 min. Continuous digital recording of airway smooth muscle contractile force was done with Biopac hardware connected to Acknowledge v 7.3.3 software. Preliminary contractile challenges with performed with acetylcholine dose responses (0.1 nM-100 uM) 3 times with buffer exchanges and resetting of resting tension between each dose response. The Guinea pig tracheal rings were contracted with acetylcholine (an EC50 concentration for each ring). Following stabilization of the contractile force, the GABAA α5 selective negative modulator or the GABAA non-selective antagonist gabazine was added to the buffer."}, "GABAA receptors [3]": {"tested_on": "GABAA receptors", "experiment": "FLIPR membrane potential fluorescent dye assay in cultured human airway smooth muscle cells", "assay_type": "cell-based", "settings": "for antagonism of THIP-induced fluorescent / membrane potential changes: picrotoxin 200 uM, THIP 500 uM and 1 mM", "experimental": "(§1) Human immortalized bronchial smooth muscle cell lines prepared as described were grown to confluence in M199 media (Gibco) containing 10% fetal bovine serum, 0.25 ng/ml epidermal growth factor, 1 ng/ml fibroblast growth factor, ITS supplement (1 mg/ml insulin, 0.55 mg/ml transferrin, 0.67 ug/ml sodium selenium) and antibiotics (100 units/ml penicillin G sodium, 100 μg/ml streptomycin sulfate, 0.25 μg/ml amphotericin B) in a humidified atmosphere of 5% CO2/95% air at 37° C. Twenty four hours prior to study, cells were fed with serum and growth factor free media.\nTo determine whether activation of GABAA receptors induces membrane potential changes in cultured human airway smooth muscle cells the FLIPR in vitro fluorescent dye assay (Molecular Devices) was used. Human airway smooth muscle cells (prepared as described in Reference Examples 1 and 2) were grown to 100% confluence in 96 well black-walled plates and were washed with warmed (37° C.) low chloride buffer (consisting of in mM: 160 sodium-D-gluconate, 4.5 potassium-D-gluconate, 2 CaCl2, 1 MgCl2, 10 D-glucose, and 10 Hepes pH 7.4) four times. A stock solution (100% dye) of FLIPR blue dye was prepared by reconstitution of 1 vial (125 mg) with 100 ml of the low chloride buffer (assay buffer). A 50% working stock was prepared by further diluting the reconstituted blue dye 1:1 with assay buffer and was used to load cells (90 ul/well) over 20 minutes at 37° C. All reagents were dissolved in assay buffer. Baseline fluorescence was measured for 3 min prior to the first control additions (assay buffer). Three minutes later, airway smooth muscle cells were exposed to varying concentrations of THIP (0-10 mM) to determine a dose response. The fluorescence produced by membrane potential change following solution additions was quantified after subtracting changes induced by assay buffer alone. For subsequent antagonist assays, the first solution injected was either assay buffer, vehicle control (0.05% DMSO final), or the GABAA receptor antagonist picrotoxin (200 uM final) followed THIP (either 0.5 or 1 mM)."}, "[4]": {"tested_on": "Guinea pig (GP) tracheal rings", "experiment": "Isoproterenol-mediated relaxation of acetylcholine-contracted guinea pig tracheal rings with α4 GABAA selective agonist", "settings": "for potentiation of isoproterenol-mediated relaxation: single dose 500 uM THIP or 200 uM taurine, acetylcholine pre-contracted; for EC50: Cavia porcellus, read-out: EC50 of isoproterenol relaxation concentration-response curve"}, "GABAA receptors [5]": {"tested_on": "GABAA receptors", "experiment": "Whole cell voltage clamp electrophysiology (Fluxion microfluidic plate) of human airway smooth muscle cells", "assay_type": "cell-based", "experimental": "as §1\nOn the day of the assay, human airway smooth muscle cells (prepared as described in Reference Examples 1 and 2) were released from collagen-coated plates with collagenase type IV (Sigma C5138; 500 units/ml). The cells were resuspended in external buffer solution (In mM: NaCl 147, MgCl2 2, CaCl2 2, HEPES 10, dextrose 10; pH 7.2, osmolarity 320 mOsm) and rocked at room temperature to allow cells to obtain a spherical shape. Approximately 1 million cells were centrifuged (300×g, 3 min), washed ×2 in external buffer, and loaded (final volume of 400 uL) into a Fluxion microfluidic plate with each experimental group representing an ordered arrangement of 20 cells in parallel whole cell configuration. Following generation of adequate cellular membrane seals (40-120 MΩ), whole cell recordings were obtained under voltage clamp conditions (−80 mV) to a dose response to THIP (0.3 uM-300 uM). In separate assays cells were also co-treated simultaneously with 20 uM gabazine (GABAA receptor antagonist) and 25 uM THIP. In addition, to confirm that THIP-induced currents were due to chloride efflux, in separate experiments the intracellualar buffer (in mM: MgCl2 4, EGTA 10, HEPES 10, CsCl 130, Mg-ATP 4, CsOH 10, pH 7.2, 290 mOsM) was modified by replacing […] CsCl with 140 Cs gluconate to inhibit the magnitude of the […] current at −80 mV."}}, "note": "“And” between values parts separate entries of the source, which are not always exact repeats. Identical values can stand only once. “Also recorded” adds a separate entry of the source. Like-named read-outs stand apart in the source and are kept apart here."}
{"molecule": "CNC(=O)c1ncn2c1[C@@H]1CCCN1C(=O)c1cc(OC)ccc1-2", "note": "[CM-D-45, N-methyl (S)-11,12,13,13a-tetrahydro-7-methoxy-9-oxo-9H-imidazo-[1,5-a]pyrrolo-[2,1-c][1,4]-benzodiazepine-1-carboxamide]", "values": [{"measurement": "functional selectivity among GABAAR α-subtypes (inward currents, agonist activity)", "setting": "[1]", "value": "selectivity bias in favor or α4 and α6-GABAAR"}, {"measurement": "muscle force, % of initial force remaining after substance P contraction", "setting": "GP tracheal rings; 1 uM substance P contraction", "value": "61.3% and 61.3±16.9%"}, {"measurement": "muscle force, % of initial TEA-induced force remaining", "setting": "GP tracheal rings; 10 mM TEA contraction", "value": "54.3% and 54.3±14.3%"}, {"measurement": "membrane polarization, inward rectifying currents", "setting": "human Jurkat E6-1 cells", "value": "hyperpolarizing membrane dose-response signals can be generated"}, {"measurement": "relaxation of an acetylcholine induced contraction (percent of remaining tone)", "setting": "murine tracheal rings", "value": "relaxation of an acetylcholine (Ach) induced contraction in murine tracheal rings from wild-type but not GABAA α4 knockout mice"}]}
{"molecule": "COCc1ncn2c1CN(C)C(=O)c1cc(Cl)ccc1-2", "note": "[PWZ-029]", "values": [{"measurement": "change in airway smooth muscle force", "setting": "[2]", "value": "increase in force"}]}
{"molecule": "COc1ccc2c(c1)C(=O)N1CCC[C@H]1c1c(C(=O)OC(C)C)ncn1-2", "values": [{"measurement": "melting point", "value": "215 to 217", "unit": "°C"}]}
{"molecule": "picrotoxin", "values": [{"measurement": "antagonism of THIP-induced fluorescent / membrane potential changes", "setting": "GABAA receptors [3]", "value": "attenuation of THIP-induced fluorescent changes"}, {"measurement": "antagonism of THIP-induced fluorescent / membrane potential changes", "setting": "GABAA receptors [3]; listed as Picrotoxin", "value": "antagonism of THIP mediated membrane potential changes persisted even under conditions of high dose THIP"}]}
{"molecule": "Oc1noc2c1CCNC2", "note": "[THIP]", "values": [{"measurement": "muscle force, % of initial acetylcholine-induced force", "setting": "[4]; THIP (500 uM) plus isoproterenol, n=8", "value": "22.9 ±13.2", "unit": "%"}, {"measurement": "potentiation of isoproterenol-mediated relaxation", "setting": "[4]", "value": "significantly potentiated the relaxant effects of isoproterenol"}, {"measurement": "EC50", "setting": "GABAA receptors [3]; THIP 0 to 10 mM, low chloride buffer, n=12, read-out: EC50, change in relative fluorescence (membrane potential)", "value": 245000, "unit": "nM"}, {"measurement": "mean evoked current", "setting": "GABAA receptors [5]; 10 uM THIP, 11/12 arrays of 20 cells in whole cell configuration", "value": "−670.4+27.6 pA"}, {"measurement": "EC50", "setting": "GABAA receptors [5]; THIP 0 to 300 uM, voltage clamped at −80 mV, read-out: EC50, current elicited in whole cell configuration", "value": "~15000 nM and 15000 nM"}]}
{"molecule": "CC(C)NCC(O)c1ccc(O)c(O)c1", "note": "(stereo not shown) [isoproterenol]", "values": [{"measurement": "EC50", "setting": "[4]; isoproterenol after a single concentration of 200 uM taurine, n=7", "value": 2.4, "unit": "nM"}, {"measurement": "EC50", "setting": "[4]; isoproterenol after a single concentration of 500 uM THIP, n=8", "value": "7.6 ± 0.5", "unit": "nM"}, {"measurement": "EC50", "setting": "[4]; isoproterenol only (THIP experiment), n=8", "value": 32.8, "unit": "nM"}, {"measurement": "EC50", "setting": "[4]; isoproterenol only (taurine experiment), n=6", "value": 15.8, "unit": "nM"}, {"measurement": "EC50", "setting": "[4]; isoproterenol with 200 uM taurine subsequent to 200 μM gabazine pretreatment, n=7", "value": 4.7, "unit": "nM"}, {"measurement": "EC50", "setting": "[4]; isoproterenol with 500 uM THIP subsequent to 500 μM gabazine pretreatment, n=8", "value": "11.8 ± 0.6", "unit": "nM"}, {"measurement": "muscle force, % of initial acetylcholine-induced force", "setting": "[4]; isoproterenol alone at low concentration, n=8", "value": "76.5±8.5", "unit": "%"}]}
{"molecule": "NCCS(=O)(=O)O", "note": "[taurine]", "values": [{"measurement": "potentiation of isoproterenol-mediated relaxation", "setting": "[4]", "value": "potentiated isoproterenol-mediated relaxation"}]}
{"molecule": "COc1ccc(-c2ccc(=N)n(CCCC(=O)O)n2)cc1", "note": "[gabazine]", "values": [{"measurement": "reversal of agonist potentiation of isoproterenol-mediated relaxation", "setting": "[4]; gabazine pretreatment 15 min prior to acetylcholine", "value": "significantly reversed the THIP potentiation of isoproterenol-mediated relaxation; also recorded: significantly reversed the potentiation of isoproterenol-mediated relaxation provided by taurine"}, {"measurement": "muscle force, % of initial acetylcholine-induced force", "setting": "[4]; gabazine pretreatment, then THIP plus isoproterenol, n=8", "value": "53.1±11.4", "unit": "%"}, {"measurement": "attenuation of THIP induced whole cell currents", "setting": "GABAA receptors [5]; gabazine with THIP 25 uM, −80 mV", "value": "attenuation of the THIP-induced current; also recorded: attenuation of THIP induced whole cell currents"}]}
